Source: patent US20210382054A1, “METHODS FOR SCREENING UBIQUITIN LIGASE AGONISTS” (University of Washington, priority 2018, published 2021)

What follows are substances tested against T1, KEAP1-ssDNA12 and KRAS^G12D-ssDNA18 (Homo sapiens, UniProt P01116+Q14145, G12D) (assay: APTLAB (adjustable platform for tracking low affinity binding) detected by Octet BLI). Settings: ssDNA bridge oligonucleotide alone, no compound (FIG. 8B).
T1 construct: full length human KRAS4B (UniProtKB-P01116-2) with a site mutation G12D; His-tag (N, cleaved yes); His-tag (N); made in house; host or cells: E. coli BL21 (DE3)
Text: While TR-FRET can be used as an informative second screen for hit validation, its principle is similar to AlphaScreen and relies on beads-based and proximity-induced signals. The hit compounds were further validated with additional methods that are distinct from AlphaScreen and TR-FRET methods. […] In other words, even though these compounds might be able to promote KRAS-KEAP1 interaction, the resulting ternary complex might be too unstable to be detected by the conventional methods. To overcome this problem, a new assay was designed (designated herein as APTLAB, adjustable platform for tracking low affinity binding) (FIG. 5), in which weak interactions between complementary DNA strands with variable length was used to enhance the compound-induced low affinity binding between KRAS and KEAP1 and render it detectable by conventional methods.
To couple adjustable DNA oligonucleotide interactions with low affinity protein-protein interaction, a protein fold, HUH, which is able to react with a specific single-stranded DNA (ssDNA) oligonucleotide and form a covalently linked protein-DNA conjugate (Lovendahl, K. N., Hayward, A. N. & Gordon, W. R. Sequence-Directed Covalent Protein-DNA Linkages in a Single Step Using HUH-Tags. J Am Chem Soc 139, 7030-7035, doi:10.1021/jacs.7b02572 (2017)), was utilized. HUH protein was fused to the C-terminus of KEAP1 and KRAS^G12D individually so that the two chimeric proteins can each form a covalent link with an ssDNA containing the HUH-reactive sequence (FIGS. 5 and 6). The purified HUH fusion proteins were adjusted to 100 μM in a buffer containing 20 mM HEPES (pH 7.5), 50 mM NaCl, 0.5 mM TCEP, 1 mM MgCl2 and 1 mM MnCl2. The ssDNA oligonulceotides were added to a final concentration of 120 μM. […]
ssDNA bridge oligonucleotides were synthesized with different lengths with 33, 28 and 23 nucleotides (nt) (FIG. 8A) and tested their ability to promote complex formation between the two ssDNA-protein conjugates as monitored by BLI. […]
For “ssDNA-bridge33nt: ssDNA bridge oligonucleotide, 33 nucleotides, 5′-GTTGTTGTTGTTGTTTTGTATGGTGTGTGGTGG-3′ (chemistry not fully specified)”, the “complex formation between KEAP1-ssDNA12 and KRAS^G12D-ssDNA18, BLI binding signal” value was “high BLI signal”.
For “ssDNA-bridge28nt: ssDNA bridge oligonucleotide, 28 nucleotides, 5′-GTTGTTGTTGTTTTGTATGGTGTGTGGT-3′; inflection point bridge (chemistry not fully specified)”, the “complex formation between KEAP1-ssDNA12 and KRAS^G12D-ssDNA18, BLI binding signal” value was “significantly lower”.
For “ssDNA-bridge23nt: ssDNA bridge oligonucleotide, 23 nucleotides, 5′-GTTGTTGTTTTGTATGGTGTGTG-3′ (chemistry not fully specified)”, the “complex formation between KEAP1-ssDNA12 and KRAS^G12D-ssDNA18, BLI binding signal” value was “too weak to detect”.
